Measured values taken from article PMC12196251, “Synthesis of New DltA Inhibitors and Their Application as Adjuvant Antibiotics to Re-Sensitize Methicillin-Resistant Staphylococcus aureus” (Molecules, 2025).
Values joined by “and” are separate entries in the source; they are usually repeats but may differ in a detail not shown here. Equal values may be shown once. Where a name gives a salt, the structure may show the parent alone. Read-outs that look alike come from different tables or passages of the source.

What was measured:
[1] = test system: MRSA clinical isolates; assay: MIC of imipenem against MRSA in absence or presence of DltA inhibitor; assay type: cell-based, S. aureus; conditions: for MIC: Staphylococcus aureus, MRSA
Protocol: (§1) All these compounds were also tested […] against MRSA clinical isolates. […] The minimum inhibitory concentrations (MICs) of imipenem (IPM) were next determined in the absence or presence of 1 mM of the different DltA inhibitors to evaluate their potential to re-sensitize MRSA to this β-lactam (Table 2). […] To clarify this hypothesis, quantification of D-alanyl ester of the MRSA cell wall was performed as previously described in the presence of inhibitors (Table 2). […] These new series represent a promising structure entry not reported yet for the inhibition of DltA and the re-sensitization of bacteria toward known antibiotics.
Colonies from BHI agar plates were suspended in saline solution (0.9% NaCl) and adjusted to an OD600 of 0.5. For growth kinetics determination, 96-well microplates (Starlab, Orsay, France) containing 200 μL of fresh BHI medium were inoculated with bacterial suspensions to an OD600 of 0.02 with a wide range of DltA inhibitors (from 0 to 2 mM). Plates were incubated at 37 °C with shaking (orbital amplitude of 3 mm) in a microplate reader (InfiniteM Nano, Tecan, Seoul, Republic of Korean). OD600nm was measured every 10 min for 24 h. Determination of MIC/MBC of antibiotics and bacterial survival assays were performed as previously described using BHI medium. The DltA inhibitor was diluted in pure water and added to the growth medium to a final concentration of 0, 0.1, 0.25, 0.5, 0.75, or 1 mM.

[2] = molecular target: T1, recombinant DltA from S. epidermidis (Staphylococcus epidermidis, UniProt Q5HQN0); assay: DltA enzyme inhibition, PPi release coupled-enzyme assay; assay type: biochemical
T1 construct: made in house; host or cells: E. coli
T1 sequence (Q5HQN0 1-485): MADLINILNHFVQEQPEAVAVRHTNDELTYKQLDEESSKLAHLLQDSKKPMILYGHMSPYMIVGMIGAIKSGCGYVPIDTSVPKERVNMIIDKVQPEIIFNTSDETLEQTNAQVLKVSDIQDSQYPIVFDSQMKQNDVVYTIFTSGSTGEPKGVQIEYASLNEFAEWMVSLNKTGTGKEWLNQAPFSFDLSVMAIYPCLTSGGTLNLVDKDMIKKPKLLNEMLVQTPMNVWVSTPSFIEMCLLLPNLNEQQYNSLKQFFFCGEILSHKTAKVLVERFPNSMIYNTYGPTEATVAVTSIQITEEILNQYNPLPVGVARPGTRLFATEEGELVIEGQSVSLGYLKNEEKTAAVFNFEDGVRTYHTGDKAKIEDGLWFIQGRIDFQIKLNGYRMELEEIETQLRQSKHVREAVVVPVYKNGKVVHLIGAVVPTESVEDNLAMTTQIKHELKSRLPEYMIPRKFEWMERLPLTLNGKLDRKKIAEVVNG
Protocol: (§2) All new compounds were then evaluated in vitro for enzyme inhibition against recombinant DltA from E. faecalis or S. epidermis. Half-maximal inhibitory concentrations (IC50) were then determined by measuring the amount of PPi released at different inhibitor concentrations (Table 2). […] We noticed the DltA enzyme tolerated the presence of various modifications on the 2′-position, but the activity was inversely related to the size of the introduced group. […] Despite a good predicted binding affinity (−8.7 Kcal/mol), we hypothesize that the lower activity could be explained by the fact that the squaramide nitrogen atom might not be under its anionic form, as is the case with sulfamate 1.
(§3) The DltA-catalyzed ATP-hydrolysis reaction was monitored in vitro via PPi release (DltA +D-alanine +ATP → DltA-DAla-AMP +PPi) using a coupled-enzyme assay. The purified DltA was pretreated with DltC purified from E. coli to clear D-Ala-AMP already present in the enzyme preparation after expression in E. coli. Holo-DltC is the natural protein partner of DltA, and DltC purified from E. coli BL21 (DE3) contained 51% of this active form of DltC as determined by HPLC analysis. DltA was pretreated with DltC (ratio 1:1.2), incubated for 30 min at 37 °C and 30 min at 4 °C. Three successive washes were realized on Amicon Ultra-2 Centrifugal Filter Unit—Ultracel 30 membrane 30 kDa MWCO (Merck, Darmstadt, Germany) with elution buffer EB at 4 °C. The components of the coupled enzyme assay included 1.5 μM pre-treated DltA, 20 μM of ATP, and 14 μM of D-alanine. The half-maximal inhibitory concentration (IC50) of potential DltA inhibitors was determined by the addition of different concentrations of the synthesized molecules. PPi release was determined using the PiPer—Pyrophosphate assay kit (Invitrogen, Waltham, MA, USA) according to the recommendation of the supplier. Reactions were carried out in 96-well Chimney Style, non-binding Microplates with μClear Film Bottom (Greiner Bio-one, Frickenhausen, Germany). Plates were incubated at 37 °C for 5 h and read in a FlexStation 3 Multi-Mode plate reader (Molecular Devices, Silicon Valley, CA, USA), with λ excitation of 530 nm and λ emission of 590 nm. Experiments were conducted in sextuplicate, and the IC50 was determined by linear regression of the curve.

[3] = test system: D-alanyl ester of the MRSA cell wall; assay: Quantification of D-alanyl ester in the bacterial cell wall; assay type: cell-based, S. aureus; conditions: inhibitor at 1 mM, value (spread)
Protocol: as §1
Ester-linked D-alanines were quantified as described previously, with the following modifications. Cultures were grown in 5 mL of BHI supplemented with DltA inhibitor to a final concentration of 0.05, 0.1, 0.25, 0.5, 0.75, or 1 mM for 16 h at 37 °C under shaking (120 rpm). Briefly, the quantification is based on the oxidation of a chromogen by H2O2 generated when free D-alanines are oxidized by a D-amino acid oxidase. Three independent experiments with duplicate samples were performed.

[4] = molecular target: T2, recombinant DltA from E. faecalis (Enterococcus faecalis, UniProt Q830N0); assay: DltA enzyme inhibition, PPi release coupled-enzyme assay; assay type: biochemical
T2 construct: made in house; host or cells: E. coli
T2 sequence (Q830N0 1-506): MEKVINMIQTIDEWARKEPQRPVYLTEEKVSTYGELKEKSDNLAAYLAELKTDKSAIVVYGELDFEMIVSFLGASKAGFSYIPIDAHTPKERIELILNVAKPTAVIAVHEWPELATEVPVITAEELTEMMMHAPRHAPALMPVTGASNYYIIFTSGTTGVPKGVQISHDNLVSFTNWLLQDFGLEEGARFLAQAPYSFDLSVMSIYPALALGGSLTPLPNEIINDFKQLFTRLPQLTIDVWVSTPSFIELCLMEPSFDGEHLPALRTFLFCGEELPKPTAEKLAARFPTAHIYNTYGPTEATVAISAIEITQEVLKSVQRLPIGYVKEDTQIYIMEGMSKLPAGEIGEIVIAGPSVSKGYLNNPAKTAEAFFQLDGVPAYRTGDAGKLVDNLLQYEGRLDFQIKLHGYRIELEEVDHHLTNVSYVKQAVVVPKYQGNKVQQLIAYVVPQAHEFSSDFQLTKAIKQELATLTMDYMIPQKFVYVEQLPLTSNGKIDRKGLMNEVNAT
Protocol: as §2, §3

[5] = read-out: MIC of IPM, S. aureus (MRSA), in presence of 1 mM of the DltA inhibitor
[6] = S. aureus (MRSA), in presence of 1 mM of the DltA inhibitor
[7] = S. aureus (MRSA), in presence of 1 mM of the DltA inhibitor, read-out: MIC of IPM

MIC ([1]; tested MRSA strain, no inhibitor, read-out: MIC of IPM in the absence of an inhibitor)	Structure (SMILES)	MIC [1, 5]	IC50 [2]	Reduction in D-Ala Ester Residues [3]	IC50 [4]	MIC of IPM [1, 6]	MIC [1, 7]	IC50 ([2]; Dlt from S. epidermidis, PPi release, value (spread))
	CC(C)OP(=O)(OC(C)C)C(F)(F)/C=C/CO[C@@H]1[C@H](O)[C@@H](COS(=O)(=O)NC(=O)[C@@H](C)N)O[C@H]1n1cnc2c(N)ncnc21 [Compound 18, ((2R,3R,4R,5R)-5-(6-amino-9H-purin-9-yl)-4-(((E)-4-(diisopropoxyphosphoryl)-4,4-difluorobut-2-en-1-yl)oxy)-3-hydroxytetrahydrofuran-2-yl)methyl (D-alanyl)sulfamate salt]	0.25 µg/mL	7.6 µM	51.5% and 51.5 (14.2) %				
	C[C@@H](N)C(=O)Nc1c(NC[C@H]2O[C@@H](n3cnc4c(N)ncnc43)[C@H](O)[C@@H]2O)c(=O)c1=O [Compound 23, 5′-N-(N-D-alanyl]-(3-amino-cyclobut-3-ene-1,2-dione))aminodeoxy adenosine salt]			11.5 (1.3) %	28.4 µM			
	C[C@@H](N)C(=O)c1cn(C[C@H]2O[C@@H](n3cnc4c(N)ncnc43)[C@H](F)[C@@H]2O)nn1 [Compound 50, (R)-2-amino-1-(1-(((2R,3R,4R,5R)-5-(6-amino-9H-purin-9-yl)-4-fluoro-3-hydroxytetrahydrofuran-2-yl)methyl)-1H-1,2,3-triazol-4-yl)propan-1-one salt]	16 to 64 µg/mL		8.6 (1.1) %	14.7 µM	32 µg/mL		
	C[C@@H](NC(=O)OCc1ccc([N+](=O)[O-])cc1)C(=O)c1cn(C[C@H]2O[C@@H](n3cnc4c(N)ncnc43)[C@H](O)[C@@H]2O)nn1 [Compound 54, 4-nitrobenzyl ((R)-1-(1-(((2R,3S,4R,5R)-5-(6-amino-9H-purin-9-yl)-3,4-dihydroxytetrahydrofuran-2-yl)methyl)-1H-1,2,3-triazol-4-yl)-1-oxopropan-2-yl)carbamate salt]		21.9 µM	0%		16 µg/mL	16 to 64 µg/mL	
	C[C@@H](N)C(=O)NS(=O)(=O)OC[C@H]1O[C@@H](n2cnc3c(N)ncnc32)[C@@H](N=[N+]=[N-])[C@@H]1O [Compound 9, ((2R,3S,4S,5R)-5-(6-amino-9H-purin-9-yl)-4-azido-3-hydroxytetrahydrofuran-2-yl)methyl (D-alanyl)sulfamate salt]			74.9% and 74.9 (9.4) %	3.8 µM		8 µg/mL	
	CCCCCCC(=O)N[C@H](C)C(=O)c1cn(C[C@H]2O[C@@H](n3cnc4c(N)ncnc43)[C@H](O)[C@@H]2O)nn1 [Compound 51, N-((R)-1-(1-(((2R,3S,4R,5R)-5-(6-amino-9H-purin-9-yl)-3,4-dihydroxytetrahydrofuran-2-yl)methyl)-1H-1,2,3-triazol-4-yl)-1-oxopropan-2-yl)heptanamide salt]		22.2 µM	22.2 (5.0) %		16 µg/mL	16 to 64 µg/mL	
	CCCCCCOc1ccc(C(=O)N[C@H](C)C(=O)c2cn(C[C@H]3O[C@@H](n4cnc5c(N)ncnc54)[C@H](O)[C@@H]3O)nn2)cc1 [Compound 53, N-((R)-1-(1-(((2R,3S,4R,5R)-5-(6-amino-9H-purin-9-yl)-3,4-dihydroxytetrahydrofuran-2-yl)methyl)-1H-1,2,3-triazol-4-yl)-1-oxopropan-2-yl)-4-(hexyloxy)benzamide salt]		16 µM	12.5 (14.0) %		16 µg/mL	16 to 64 µg/mL	
32 µg/mL	C[C@@H](O)[C@H]1C(=O)N2C(C(=O)O)=C(SCCN=CN)C[C@H]12 [IPM, imipenem, reference compound]							
	C[C@@H](N)C(=O)NS(=O)(=O)OC[C@H]1O[C@@H](n2cnc3c(N)ncnc32)[C@H](n2cc(CO[C@@H]3O[C@H](CO)[C@@H](O)[C@H](O)[C@H]3O)nn2)[C@@H]1O [Compound 11, ((2R,3S,4R,5R)-5-(6-amino-9H-purin-9-yl)-3-hydroxy-4-(4-((((2R,3R,4S,5S,6R)-3,4,5-trihydroxy-6-(hydroxymethyl)tetrahydro-2H-pyran-2-yl)oxy)methyl)-1H-1,2,3-triazol-1-yl)tetrahydrofuran-2-yl)methyl (D-alanyl)sulfamate salt]		39.5 µM	0%		32 µg/mL	16 to 64 µg/mL	
	C[C@@H](N)C(=O)NS(=O)(=O)NC/C(CF)=C(\F)Cn1cnc2c(N)ncnc21 [Compound 38, (R,E)-2-amino-N-(N-(4-(6-amino-9H-purin-9-yl)-3-fluoro-2-(fluoromethyl)but-2-en-1-yl)sulfamoyl)propenamide salt]		> 100 µM	2%		32 µg/mL	16 to 64 µg/mL	complete loss of the activity
	C[C@@H](NC(=O)c1ccc(-c2ccccc2)cc1)C(=O)c1cn(C[C@H]2O[C@@H](n3cnc4c(N)ncnc43)[C@H](O)[C@@H]2O)nn1 [Compound 52, N-((R)-1-(1-(((2R,3S,4R,5R)-5-(6-amino-9H-purin-9-yl)-3,4-dihydroxytetrahydrofuran-2-yl)methyl)-1H-1,2,3-triazol-4-yl)-1-oxopropan-2-yl)-[1,1′-biphenyl]-4-carboxamide salt]		12.4 µM	16% and 16.0 (4.2) %			8 µg/mL	
